The target of experiment [1] is FLNA pentapeptide of SEQ ID NO: 1 (Bn-VAKGL) (Homo sapiens, UniProt P21333). The experiment is described as follows: FITC-NLX-based FLNA screening assay (inhibition of FITC-naloxone binding to Bn-VAKGL on streptavidin plates). The following applies: 10 nM FITC-NLX, read-out: Percent Binding Inhibition; for inhibition at 0.01 µM: FLNA-binding compound 0.01 μM; for inhibition at 0.1 µM: FLNA-binding compound 0.1 μM; for inhibition at 1 µM: FLNA-binding compound 1 μM.

The target in experiment [2] is sigma σ1 receptor (Homo sapiens, UniProt Q99720). The experiment is described as follows: Standard receptor binding assay. The following applies: 10 μM concentration.
Chain of sigma σ1 receptor (Q99720 whole entry): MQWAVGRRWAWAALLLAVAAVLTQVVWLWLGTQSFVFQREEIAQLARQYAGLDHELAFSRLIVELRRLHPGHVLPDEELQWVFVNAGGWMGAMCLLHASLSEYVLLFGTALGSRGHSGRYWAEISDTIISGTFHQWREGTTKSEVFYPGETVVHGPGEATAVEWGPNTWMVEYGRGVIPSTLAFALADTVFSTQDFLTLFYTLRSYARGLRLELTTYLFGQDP
Experiment [3] relates to mu opiate receptor (MOR). The experiment is described as follows: MOR agonist activity using [35S]GTPγS binding assay in striatal membranes. It is filed as biochemical. The essentials: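 Striatal membranes (200 μg) were preincubated 5 min at 30 °C in HEPES pH 7.5 with 100 mM NaCl, 1 mM MgCl2 and 0.5 nM [35S]GTPγS, then 5 min more with 0.1–10 μM compound. Gαo was immunoprecipitated and bound radioactivity counted by scintillation.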

Experiment [4] deals with adrenergic α1 receptors. The experiment is described as follows: Standard receptor binding assay. The following applies: 10 μM concentration.
For experiment [5], the target named is biotinylated pentapeptide (Bn-VAKGL) of SEQ ID NO: 1 (Homo sapiens, UniProt P21333). The experiment is described as follows: Inhibition of [3H]NLX binding to biotinylated pentapeptide (Bn-VAKGL). As to conditions: read-out: IC50, inhibition of [3H]NLX binding to Bn-VAKGL; single affinity state.
Excerpt: Data are derived from 6 studies, each using a different set of A7 cells.
Experiment [6] concerns BxPC3 pancreatic cancer cell implants. The experiment is described as follows: Xenograft tumor size study. The following applies: gemcitabine at 50 mg/kg i.p. b.i.d.

For the compound `CC1CN(CC(O)COc2cccc(F)c2)CC(C)O1` (centres unmarked) [Compound A0049], in experiment [1], the inhibition – broadly, how much of the control response was suppressed – at 0.01 µM worked out at 46.2%; the inhibition at 0.1 µM is 49.4%; the inhibition at 1 µM came to 49.3%. Also, the “Activity at sigma σ1 receptor” value in experiment [2] is recorded as “antagonist”. Also, in experiment [3] (0.1 μM compound), the “MOR agonist activity ([35S]GTPγS binding), FLNA-Binding Compound as Agonist 0.1 μM” value is recorded as 232.3%. Moreover, the “% DAMGO (0.1 μM)” value in experiment [3] (0.1 μM compound relative to DAMGO) amounted to 118.4%. In experiment [3] (1 μM compound), the “MOR agonist activity ([35S]GTPγS binding), FLNA-Binding Compound as Agonist 1 μM” value is 370.3%. The “MOR agonist activity ([35S]GTPγS binding), FLNA-Binding Compound as Agonist 1 μM + BFNA” value in experiment [3] (1 μM compound + 1 μM β-funaltrexamine) was found to be 107.1%. For the same compound, in experiment [3] (1 μM compound + BFNA relative to DAMGO + BFNA), the “% DAMGO + BFNA” value was determined as 144.9%. For the same compound, the “% DAMGO (1 μM)” value in experiment [3] (1 μM compound relative to DAMGO) amounted to 134.2%.

With `COc1ccc(S(=O)(=O)N2CCOC23CCNCC3)cc1` [Compound C0027], the inhibition at 0.01 µM in experiment [1] worked out at 50.8%. For the same compound, the inhibition at 0.1 µM in experiment [1] stood at 61.2%. The inhibition at 1 µM in experiment [1] worked out at 63.8%. Moreover, in experiment [2], the “Activity at sigma σ1 receptor” value is reported as “antagonist”. The “% DAMGO (0.1 μM)” value in experiment [3] (Series C-2, 0.1 μM compound, relative to DAMGO) was determined as 121.3%. In addition, the “MOR agonist activity, percent [35S]GTPγS binding at the stated compound concentration” value in experiment [3] (Series C-2, 0.1 μM compound, [35S]GTPγS binding to Gαo, striatal membranes) is 233.2%; in experiment [3] (Series C-2, 1 μM compound + 1 μM β-FNA), 72.2%; in experiment [3] (Series C-2, 1 μM compound, [35S]GTPγS binding to Gαo, striatal membranes), 313.9%. Moreover, the “% DAMGO + BFNA” value in experiment [3] (Series C-2, 1 μM compound + β-FNA, relative to DAMGO + BFNA) amounted to 164.5%. The “% DAMGO (1 μM)” value in experiment [3] (Series C-2, 1 μM compound, relative to DAMGO) was 115.0%. Further, in experiment [4], the “Activity at adrenergic α1 receptors” value is listed as “antagonist”.

Regarding `O=C1CC[C@@]2(O)[C@H]3Cc4ccc(O)c5c4[C@@]2(CCN3CC2CC2)[C@H]1O5` [Naltrexone], the concentration for half-maximal inhibition (IC50) (usually the point on the concentration scale where inhibition reaches its midpoint) in experiment [5] is 0.043 nM.

Consider `Nc1ccn([C@@H]2O[C@H](CO)[C@@H](O)C2(F)F)c(=O)n1` [gemcitabine], for which the Tumor growth result in experiment [6] was “slowed growth but did not shrink BxPC3 xenograft tumors”.

These data come from US10363239B2, “Method for inhibiting growth of cancer cells” (Pain Therapeutics, Inc., priority 2013, dated 2019).
